In the NIST ThermoML archive (doi:10.1021/je3009599):

Settings: Liquid

CCCC(=O)OCC [ethyl butanoate]
Settings	vapor or sublimation pressure [kPa]
348.97 K	22.5
351.83 K	25
354.39 K	27.5
356.76 K	30.03
359 K	32.51
361.08 K	35.02
363.04 K	37.52
364.86 K	40.04
366.66 K	42.51
368.24 K	45.03
369.87 K	47.51
371.44 K	50.01
372.86 K	52.51
374.31 K	55.03
375.67 K	57.52
376.95 K	60
379.48 K	65.03
380.68 K	67.53
381.82 K	70
382.96 K	72.52
384.07 K	75.01
385.13 K	77.51
386.19 K	79.99
387.22 K	82.52
388.21 K	85.02
389.17 K	87.54
390.12 K	89.98
391.06 K	92.53
391.95 K	94.92
392.83 K	97.45
393.71 K	100.01
394.13 K	101.31

CCCC(C)O (stereo not given) [pentan-2-ol]
Settings	vapor or sublimation pressure [kPa]
354.47 K	22.55
356.6 K	25.05
358.86 K	27.47
360.81 K	30.03
362.76 K	32.55
364.38 K	35.08
366 K	37.56
367.49 K	40.03
369.03 K	42.51
370.52 K	45.07
371.77 K	47.54
373.05 K	50.02
374.33 K	52.58
375.51 K	55.03
376.68 K	57.48
377.81 K	60.03
378.95 K	62.45
379.97 K	65.05
381.01 K	67.58
381.96 K	70.03
382.9 K	72.56
383.88 K	75.05
384.79 K	77.59
385.64 K	80.03
386.56 K	82.58
387.35 K	85.01
388.19 K	87.55
389 K	90.09
389.76 K	92.52
390.55 K	95.02
391.31 K	97.55
392.07 K	100.03
392.26 K	101.38
